For test [1], the system named is PA12. Description: ELISA: direct binding of anti-CCR5 MAb PA12 to peptides. Details: species or system murine. Here is the method:
(§1) In a competition ELISA, peptides were captured onto the plates as described above. Inhibitor or assay buffer was added for 1 h prior to addition of gp120JR-FL/CD4-IgG2 complex (1 nM) for an additional h at room temperature. The assay was then completed as described above. Direct binding of anti-CCR5 murine MAbs to the peptides was examined as described above except that MAb was substituted for gp120/CD4-IgG2 complex and a goat anti-mouse HRP-coupled antibody was used for detection.
For orientation: ELISA stands for enzyme-linked immunosorbent assay.

Test [2] concerns the target CD4-IgG2 (Homo sapiens, UniProt P01730+P01834+P01859). The test can be described thus: CCR5 Nt peptide ELISA with CD4-IgG2 alone. The format is binding.
Description: (§2) Streptavidin-coated ELISA plates (Pierce, Rockford, Ill.) were blocked with D-PBS/5% BSA for 2 hours at room temperature then washed three times with assay buffer (D-PBS/0.5% Tween 20/1% Fetal Bovine Serum/2% BSA). Plates were then contacted with sulfo- or phospho-peptides (1 μg/ml) for 1 hour at room temperature and washed three times with assay buffer. […] The plates were developed using the TMB substrate as described above.
Test [3] has as its system gp120JR-FL/CD4-IgG2. Description: CCR5 Nt peptide ELISA with gp120JR-FL/CD4-IgG2. The format is binding, HIV-1. Particulars: peptide 1 μg/ml on streptavidin plate.
Description: as §2
Test [4] concerns V3 loop-deleted gp120JR-FL/CD4-IgG2. Description: CCR5 Nt peptide ELISA with V3 loop-deleted gp120JR-FL/CD4-IgG2. Format: binding, HIV-1.
Description: as §2
For test [5], the system named is PA10. Description: ELISA: direct binding of anti-CCR5 MAb PA10 to peptides. Details: species or system murine. As to the method: as §1
For test [6], the system named is PA8. The test can be described thus: ELISA: direct binding of anti-CCR5 MAb PA8 to peptides. Details: species or system murine. Here is the method:
as §1

Test [7] addresses gp120LAI/CD4-IgG2 (Human immunodeficiency virus type 1 group M subtype B, UniProt P03377). Particulars: peptide 1 μg/ml on streptavidin plate. As to the method: Streptavidin-coated ELISA plates (Pierce, Rockford, Ill.) were blocked with D-PBS/5% BSA for 2 hours at room temperature then washed three times with assay buffer (D-PBS/0.5% Tween 20/1% Fetal Bovine Serum/2% BSA). Plates were then contacted with sulfo- or phospho-peptides (1 μg/ml) for 1 hour at room temperature and washed three times with assay buffer. Mixtures of CD4-IgG2 (50 nM) and purified gp120 or gp120-containing supernatants in a 1:4 molar ratio were added to the plates for 1 hour at room temperature. Plates were washed three times and (HRP)-conjugated goat anti-human IgG was used to detect the presence of bound CD4-IgG2. The plates were developed using the TMB substrate as described above. Gp120/CD4-IgG2 binding to the peptides was normalized for CD4-IgG2binding to the mutant gp120 proteins.

Test [8] deals with PA11. Description: ELISA: direct binding of anti-CCR5 MAb PA11 to peptides. Details: species or system murine. Here is the method: as §1
In test [9] the test system is PA14. The test can be described thus: ELISA: direct binding of anti-CCR5 MAb PA14 to peptides. Details: species or system murine. As to the method:
as §1

For test [10], the system named is gp120JR-FL alanine mutants/CD4-IgG2. Description: ELISA: binding of gp120JR-FL alanine mutant/CD4-IgG2 complexes to sulfopeptide 2-18. Details: species or system HIV-1. As to the method:
Mutant gp120 proteins were generated using the QuickChange Kit from Stratagene (San-Diego, Calif.). Gp120JR-FL, cloned into the pPPI4 expression vector [4], served as the template for site directed mutagenesis. Nucleotide sequencing was performed to ascertain the presence of the appropriate mutation in the gp120 coding sequence. 293T cells were calcium phosphate transfected with the different mutant gp120 expression constructs. Supernatants containing soluble gp120 proteins were harvested and cleared of debris by centrifugation 24 hours post-transfection. Quantification of gp120 was performed by ELISA as previously described). Briefly, 293T supernatants were boiled for 5 minutes and denatured gp120 was captured on an ELISA plate coated with D7324 (International Enzymes Inc. Fallbrook, Calif.), a MAb that recognizes a 15 residue linear epitope in the carboxy-terminal end of gp120. Captured gp120 was detected by a mixture of anti-gp120 MAbs B12 and B13 [40], followed by incubation with a horseradish peroxidase-conjugated (HRP) anti-mouse IgG antibody (Amersham Pharmacia, Piscataway, N.J.). Optical density (O.D.) was measured at 450 nm using the ImmunoPure TMB Substrate kit (Pierce, Rockford, Ill.).
CD4-IgG2 binding to non-denatured mutant gp120 proteins also was measured. Plates coated with D7324 were used to capture native gp120 from supernatants of transiently transfected 293T cells. CD4-IgG2 (50 nM) was added to the plates and its binding was detected using an HRP-conjugated goat anti-human IgG and TMB substrate as described above.

Test [11] relates to gp120DH123/CD4-IgG2. Description: CCR5 Nt peptide ELISA with gp120DH123/CD4-IgG2. As to conditions: peptide 1 μg/ml on streptavidin plate. The format is binding, HIV-1.
Description: as §2
Test [12] deals with T1, gp120JR-FL/CD4-IgG2 binding to the sulfopeptide 2-18 (Homo sapiens, UniProt P51681).
T1 construct: a peptide spanning CCR5 residues 2-18 and containing sulfotyrosines in positions 10 and 14; host or cells: peptide synthetic
Description: Competition ELISA: gp120JR-FL/CD4-IgG2 binding to sulfopeptide 2-18. Details: species or system HIV-1. As to conditions: complex 1 nM, up to supraphysiologic concentrations. As to the method:
as §1

Test [13] concerns the target T2, gp120/CD4 binding to cell surface CCR5 (Homo sapiens, UniProt P51681).
T2 construct: Supernatants containing soluble gp120 proteins were harvested; made in house; host or cells: gp120: 293T supernatants; CCR5: L1.2-CCR5+ cells
Particulars: cited from earlier work.

Where no end group is shown, it is not given here. [ ]: non-standard residue; d: D form. The star is where a group is joined. Biotin = O=C1N[C@H]2[C@H](CS[C@H]2CCCCC(=O)*)N1; sY = N[C@@H](Cc1ccc(OS(=O)(=O)O)cc1)C(=O)O; pY = N[C@@H](Cc1ccc(OP(=O)(O)O)cc1)C(=O)O

T2 sequence (P51681 whole entry): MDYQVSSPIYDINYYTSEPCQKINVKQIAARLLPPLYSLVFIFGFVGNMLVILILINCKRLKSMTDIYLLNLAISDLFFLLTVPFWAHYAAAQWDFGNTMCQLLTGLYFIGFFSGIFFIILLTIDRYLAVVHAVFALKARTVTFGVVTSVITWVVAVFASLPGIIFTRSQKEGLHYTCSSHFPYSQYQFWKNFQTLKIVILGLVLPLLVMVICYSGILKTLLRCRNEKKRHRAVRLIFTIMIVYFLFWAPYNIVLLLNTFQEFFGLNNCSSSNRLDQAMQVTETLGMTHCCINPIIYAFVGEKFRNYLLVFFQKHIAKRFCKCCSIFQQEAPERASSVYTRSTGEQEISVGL

Consider “2-18: peptide spanning CCR5 residues 2-18, sulfotyrosines in positions 10 and 14, carboxy terminal GAG spacer and biotinylated lysine (DYQVSSPI[sY]DIN[sY]YTSEGAGK(Biotin))”, for which, in [1], the “Binding of PA12 to peptide (ELISA)” value was “weak”. Moreover, in [2], the “Binding of CD4-IgG2 alone to peptide (ELISA)” value was “did not measurably bind”. In [3], the “Binding of gp120JR-FL/CD4-IgG2 to peptide (ELISA)” value was “strongest binding”. Moreover, the “Binding of V3 loop-deleted gp120JR-FL/CD4-IgG2 to peptide (ELISA)” value in test [4] is “did not measurably bind”. Besides, the “Binding of PA10 to peptide (ELISA)” value in [5] was “binds avidly”. Besides, the “Binding of PA8 to peptide (ELISA)” value in [6] is reported as “avidly binds”. Further, the “Binding of gp120LAI/CD4-IgG2 to peptide (ELISA)” value in test [7] was “did not measurably bind”. Besides, the “Binding of PA11 to peptide (ELISA)” value in test [8] is on record as “binds moderately”. The “Binding of PA14 to peptide (ELISA)” value in test [9] is given as “does not recognize”. In addition, the “Effect of V3 loop crown residues on gp120 binding to the sulfopeptide” value in test [10] (alanine mutants in the crown of the V3 loop, including the GPGR motif) was “no effect”. For the same molecule, the “Decrease of complex binding to the sulfopeptide by C4 alanine substitutions” value in [10] (alanine substitutions of R419, I420, K421, Q422 and R444) is listed as 5-10 fold. In addition, the “Effect of alanine substitutions of R440 and R469 on complex binding” value in test [10] (gp120 R440A, R469A) is “increased complex binding”. For the same molecule, the “Decrease of complex binding to the peptide by V3 loop stem alanine mutants” value in test [10] (gp120 alanine mutants R298, N301, T303, I322, D324, I325, R326, normalized for CD4-IgG2 binding) was greater than 10 fold. Besides, the “Effect of alanine substitutions in other regions of gp120 on complex-peptide interactions” value in [10] (other regions of gp120) was “None of the alanine substitutions that we introduced in the other regions of gp120 significantly affected”.
Turning to “2-18(P): analogous CCR5 Nt phosphopeptide, residues 2-18, phosphotyrosines in positions 10 and 14, GAG spacer, biotinylated lysine (DYQVSSPI[pY]DIN[pY]YTSEGAGK(Biotin))”, in [1], the “Binding of PA12 to peptide (ELISA)” value is on record as “undetectable”. Moreover, the “Binding of gp120JR-FL/CD4-IgG2 to peptide (ELISA)” value in test [3] is “No binding was observed”. Moreover, the “Binding of gp120DH123/CD4-IgG2 to peptide (ELISA)” value in [11] was “No binding was observed”. The “Binding of PA10 to peptide (ELISA)” value in test [5] is reported as “moderately”. Also, the “Binding of PA8 to peptide (ELISA)” value in [6] was “avidly binds”. Also, in test [7], the “Binding of gp120LAI/CD4-IgG2 to peptide (ELISA)” value was “No binding was observed”. In test [8], the “Binding of PA11 to peptide (ELISA)” value is given as “weakly”. The “Binding of PA14 to peptide (ELISA)” value in test [9] is “does not recognize”.
On to `Cc1ccc(-c2ccc3c(c2)C=C(C(=O)Nc2ccc(C[N+](C)(C)C4CCOCC4)cc2)CCC3)cc1.[Cl-]` [TAK-779], for which the “Inhibition of gp120JR-FL/CD4-IgG2 binding to the sulfopeptide 2-18” value in test [12] was “not inhibited”. In addition, in test [13], the “Block of gp120/CD4 binding to CCR5” value was “block”.

The values above are taken from patent publication US6908734B2, “Sulfated CCR5 peptides for HIV-1 infection” (priority 2000, dated 2005).
